Assay results reported in patent publication US10053455B2, “Diazaspiroalkaneone-substituted oxazole derivatives as spleen tyrosine kinase inhibitors” (AB SCIENCE, priority 2014, dated 2018).

Target: SYK kinase (Homo sapiens (Human), UniProt P43405)
Assay: In vitro SYK inhibition assay (HTRF kinase assay)
Assay type: biochemical
Details: read-out: Syk (IC50)
Description: SYK kinase was purified as a full length protein in a baculovirus system near homogeneity. All kinase assays were performed with the Kinase TK (tyrosine kinase) HTRF (Homogeneous Time Resolved Fluorescence) assay developed by Cisbio international. […] Reactions were initiated upon introduction of the enzyme and terminated with the addition of one reaction volume (25 μl) of HTRF detection buffer. Plates were incubated for one hour at room temperature and the time resolved Fluorescence resonance energy transfer signal was measured in a Pherastar FS microplate reader (BMG Labtech).
Most of the kinases tested in this study were cloned, expressed and purified in the facilities of the inventors. They were expressed either as N-terminus hexahistidine-, hexahistidine-asparagine- or GST-tagged enzymes in a baculovirus or in a Colibacille expression system. Remaining enzymes (JAKs) were purchased from Millipore or Proqinase. For each enzyme, steady state kinetic parameters were determined and validated with known inhibitors.
The analysis of the effect of compounds on kinase activity was assessed with the HTRF® KinEASE assay (Cisbio International), an immuno-assay based on the quantification of the level of phosphorylation of a biotinylated peptide substrate using anti-phospho-specific antibody labeled with Europium (Eu^3+) cryptate. This assay comprises two steps: —an enzymatic step, during which the peptide substrate, the kinase, ATP, Mg^2+ and/or Mn^2+ are incubated with varying concentration of drug (from 0 to 10 μM); —a detection step, at the end of the reaction (stopped by addition of EDTA which chelates Mg^2+), the antibody anti-phospho peptide-Eu^3+ (emission 620 nm) and streptavidin XL-665 (emission 665 nm) are added to the reaction mix. After incubation, the obtained signal is proportional to the concentration of phosphorylated peptide in the sample. All measurements were performed on a BMG Labtech Pherastar FS apparatus. Results are expressed in delta fluorescence (DF) unit defined as follow DF %=[(ratio−ratio blank)/(ratio blank)]*100, where ratio=(665 nm/620 nm)*10^4. Each experiment was performed in duplicate and repeated two or three times.

Row | Structure (SMILES) | IC50 [nM]
1 | N#Cc1ccnc(Nc2cccc(-c3cnc(N4CCNC(=O)C45CC5)o3)c2)n1 [Compound 002, 2-{3-[2-(8-Oxo-4,7-diaza-spiro[2.5]oct-4-yl)-oxazol-5-yl]-phenylamino}-pyrimidine-4-carbonitrile] | < 500
2 | O=C1NCCN(c2ncc(-c3cc(CN4CCOCC4)cc(Nc4nccc(C(F)(F)F)n4)c3)o2)C12CC2 [Compound 003, 4-{5-[3-Morpholin-4-ylmethy1-5-(4-trifluoromethyl-pyrimidin-2-ylamino)-phenyl]-oxazol-2-yl}-4,7-diaza-spiro[2.5]octan-8-one] | < 500
3 | O=C1NCCN(c2ncc(-c3cc(Nc4nccc(-c5cccs5)n4)ccc3OCCN3CCOCC3)o2)C12CC2 [Compound 004, 4-{5-[2-(2-Morpholin-4-yl-ethoxy)-5-(4-thiophen-2-yl-pyrimidin-2-ylamino)-phenyl]-oxazol-2-yl}-4,7-diaza-spiro[2.5]octan-8-one] | < 500
4 | Cc1cc(Nc2nccc(C(F)(F)F)n2)cc(-c2cnc(N3CCNC(=O)C34CC4)o2)c1 [Compound 005, 4-{5-[3-Methy1-5-(4-trifluoromethyl-pyrimidin-2-ylamino)-phenyl]-oxazol-2-yl}-4,7-diaza-spiro[2.5]octan-8-one] | < 500
5 | Cc1ccnc(Nc2cc(CN3CCOCC3)cc(-c3cnc(N4CCNC(=O)C45CC5)o3)c2)n1 [Compound 006, 4-{5-[3-(4-Methyl-pyrimidin-2-ylamino)-5-morpholin-4-ylmethyl-phenyl]-oxazol-2-yl}-4,7-diaza-spiro[2.5]octan-8-one] | < 500
6 | CCc1ccnc(Nc2cccc(-c3cnc(N4CCNC(=O)C45CC5)o3)c2)n1 [Compound 007, 4-{5-[3-(4-Ethyl-pyrimidin-2-ylamino)-phenyl]-oxazol-2-yl}-4,7-diaza-spiro[2.5]octan-8-one] | < 500
7 | O=C1NCCN(c2ncc(-c3cccc(Nc4nccc(C(F)(F)F)n4)c3)o2)C12CC2 [Compound 008, 4-{5-[3-(4-Trifluoromethyl-pyrimidin-2-ylamino)-phenyl]-oxazol-2-yl}-4,7-diaza-spiro[2.5]octan-8-one] | < 500
8 | Cc1ccnc(Nc2cccc(-c3cnc(N4CCNC(=O)C45CCCC5)o3)c2)n1 [Compound 009, 6-{5-[3-(4-Methyl-pyrimidin-2-ylamino)-phenyl]-oxazol-2-yl}-6,9-diaza-spiro[4.5]decan-10-one] | < 500
9 | O=C1NCCN(c2ncc(-c3cccc(Nc4nccc(-c5ccccc5)n4)c3)o2)C12CC2 [Compound 010, 4-{5-[3-(4-Phenyl-pyrimidin-2-ylamino)-phenyl]-oxazol-2-yl}-4,7-diaza-spiro[2.5]octan-8-one] | < 500
10 | CC(C)c1ccnc(Nc2cccc(-c3cnc(N4CCNC(=O)C45CCC5)o3)c2)n1 [Compound 011, 5-{5-[3-(4-Isopropyl-pyrimidin-2-ylamino)-phenyl]-oxazol-2-yl}-5,8-diaza-spiro[3.5]non-9-one] | < 500
11 | Cc1ccnc(Nc2cccc(-c3cnc(N4CCNC(=O)C45CCC5)o3)c2)n1 [Compound 012, 5-{5-[3-(4-Methyl-pyrimidin-2-ylamino)-phenyl]-oxazol-2-yl}-5,8-diaza-spiro[3.5]nonan-9-one] | < 500
12 | CC(C)c1ccnc(Nc2cccc(-c3cnc(N4CCNC(=O)C45CC5)o3)c2)n1 [Compound 013, 4-{5-[3-(4-Isopropyl-pyrimidin-2-ylamino)-phenyl]-oxazol-2-yl}-4,7-diaza-spiro[2.5]octan-8-one] | < 500
13 | O=C1NCCN(c2ncc(-c3cccc(Nc4nccc(N5CCOCC5)n4)c3)o2)C12CC2 [Compound 014, 4-{5-[3-(4-Morpholin-4-yl-pyrimidin-2-ylamino)-phenyl]-oxazol-2-yl}-4,7-diaza-spiro[2.5]octan-8-one] | > 2000
14 | O=C1NCCN(c2ncc(-c3cccc(Nc4nccc(-c5cccs5)n4)c3)o2)C12CC2 [Compound 015, 4-{5-[3-(4-Thiophen-2-yl-pyrimidin-2-ylamino)-phenyl]-oxazol-2-yl}-4,7-diaza-spiro[2.5]octan-8-one] | < 500
15 | O=C1NCCN(c2ncc(-c3cccc(Nc4nccc(C(F)(F)F)n4)c3)o2)C12CCC2 [Compound 016, 5-{5-[3-(4-Trifluoromethyl-pyrimidin-2-ylamino)-phenyl]-oxazol-2-yl}-5,8-diaza-spiro[3.5]nonan-9-one] | < 500
16 | O=C1NCCN(c2ncc(-c3cc(Nc4nccc(C(F)(F)F)n4)ccc3OCCN3CCOCC3)o2)C12CC2 [Compound 017, 4-{5-[2-(2-Morpholin-4-yl-ethoxy)-5-(4-trifluoromethyl-pyrimidin-2-ylamino)-phenyl]-oxazol-2-yl}-4,7-diaza-spiro[2.5]octan-8-one] | < 500
17 | Cc1ccnc(Nc2ccc(F)c(-c3cnc(N4CCNC(=O)C45CC5)o3)c2)n1 [Compound 018, 4-{5-[2-Fluoro-5-(4-methyl-pyrimidin-2-ylamino)-phenyl]-oxazol-2-yl}-4,7-diaza-spiro[2.5]octan-8-one] | < 500
18 | Cc1ccnc(Nc2cccc(-c3cnc(N4CCNC(=O)C45CC5)o3)c2C)n1 [Compound 020, 4-{5-[2-Methyl-3-(4-methyl-pyrimidin-2-ylamino)-pheny]-oxazol-2-yl}-4,7-diaza-spiro[2.5]octan-8-one] | > 2000
19 | Cc1ccnc(Nc2cccc(-c3cnc(N4CCNC(=O)C45CC5)o3)c2)c1 [Compound 021, 4-{5-[3-(4-Methyl-pyridin-2-ylamino)-phenyl]-oxazol-2-yl}-4,7-diaza-spiro[2.5]octan-8-one] | 500 to 2000
20 | O=C1NCCN(c2ncc(-c3cccc(Nc4nccs4)c3)o2)C12CC2 [Compound 022, 4-{5-[3-(Thiazol-2-ylamino)-phenyl]-oxazol-2-yl}-4,7-diaza-spiro[2.5]octan-8-one] | < 500

Tested on: Salmonella typhimurium strain TA98
Assay: AMES mutagenic assay, TA98 strain
Details: Salmonella typhimurium, 0.25 μg per well
Description: Mutagenic activity of test compounds and their metabolites (produced by rat liver S9 fraction) was evaluated in the Salmonella typhimurium strains TA100 and TA98 according to the Ames assay (Toxicology in vitro, (2001), 15: 105-114). […] The results are expressed as a mutagenicity ratio in comparison to solvent controls.
The results are expressed as a ratio of the number of colonies over the number of colonies in the negative control (DMSO).

Row | Structure (SMILES) | Mean revertant colony counts
21 | O=[N+]([O-])c1ccc2c(c1)Cc1ccccc1-2 [Compound 2-NF, 2-Nitrofluorene, reference compound] | 59.7

Same assay, conditions: TA98, absence of S-9, 0.25 μg per well (positive control)

Row | Structure (SMILES) | Ratio treated/solvent
22 | O=[N+]([O-])c1ccc2c(c1)Cc1ccccc1-2 [Compound 2-NF, 2-Nitrofluorene, reference compound] | 13.8
